Measured values published in ChEMBL document CHEMBL2074019, “Functional characterization of human organic anion transporting polypeptide B (OATP-B) in comparison with liver-specific OATP-C” (Pharm Res, 2001).
Structures can show the parent of a compound that is named as a salt.

How the values were obtained:
Type in all cases: functional, cell-based
[1] = biological target: T1, Solute carrier organic anion transporter family member 1B1 (Homo sapiens, UniProt Q9Y6L6); experiment: TP_TRANSPORTER: inhibition of E1S uptake (E1S: 0.04 uM, Estrone-3-glucuronide: 100 uM) in OATP-C-expressing HEK293 cells; conditions: hek293, 100 µM
T1 sequence (Q9Y6L6 whole entry): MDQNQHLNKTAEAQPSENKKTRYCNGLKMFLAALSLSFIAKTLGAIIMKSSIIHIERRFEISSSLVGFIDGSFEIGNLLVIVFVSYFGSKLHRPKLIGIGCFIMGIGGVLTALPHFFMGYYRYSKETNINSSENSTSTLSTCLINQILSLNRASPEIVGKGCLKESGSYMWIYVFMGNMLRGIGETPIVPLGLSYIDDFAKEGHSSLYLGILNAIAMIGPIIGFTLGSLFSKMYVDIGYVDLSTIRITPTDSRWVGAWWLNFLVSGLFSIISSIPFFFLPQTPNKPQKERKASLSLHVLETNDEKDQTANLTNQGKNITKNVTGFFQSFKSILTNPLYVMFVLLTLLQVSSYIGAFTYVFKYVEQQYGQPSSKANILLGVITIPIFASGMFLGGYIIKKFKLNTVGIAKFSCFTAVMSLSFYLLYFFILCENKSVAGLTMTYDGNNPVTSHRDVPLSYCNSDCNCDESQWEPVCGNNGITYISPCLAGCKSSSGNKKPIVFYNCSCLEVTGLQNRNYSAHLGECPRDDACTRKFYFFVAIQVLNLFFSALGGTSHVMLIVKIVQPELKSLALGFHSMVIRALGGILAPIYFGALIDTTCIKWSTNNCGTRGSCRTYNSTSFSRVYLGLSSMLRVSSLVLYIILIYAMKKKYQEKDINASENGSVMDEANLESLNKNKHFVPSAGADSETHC

[2] = biological target: T2, Solute carrier organic anion transporter family member 2B1 (Homo sapiens, UniProt O94956); experiment: TP_TRANSPORTER: inhibition of E1S uptake (E1S: 0.04 uM, beta-Estradiol: 100 uM) in OATP-B-expressing HEK293 cells; conditions: hek293, 100 µM
T2 sequence (O94956 whole entry): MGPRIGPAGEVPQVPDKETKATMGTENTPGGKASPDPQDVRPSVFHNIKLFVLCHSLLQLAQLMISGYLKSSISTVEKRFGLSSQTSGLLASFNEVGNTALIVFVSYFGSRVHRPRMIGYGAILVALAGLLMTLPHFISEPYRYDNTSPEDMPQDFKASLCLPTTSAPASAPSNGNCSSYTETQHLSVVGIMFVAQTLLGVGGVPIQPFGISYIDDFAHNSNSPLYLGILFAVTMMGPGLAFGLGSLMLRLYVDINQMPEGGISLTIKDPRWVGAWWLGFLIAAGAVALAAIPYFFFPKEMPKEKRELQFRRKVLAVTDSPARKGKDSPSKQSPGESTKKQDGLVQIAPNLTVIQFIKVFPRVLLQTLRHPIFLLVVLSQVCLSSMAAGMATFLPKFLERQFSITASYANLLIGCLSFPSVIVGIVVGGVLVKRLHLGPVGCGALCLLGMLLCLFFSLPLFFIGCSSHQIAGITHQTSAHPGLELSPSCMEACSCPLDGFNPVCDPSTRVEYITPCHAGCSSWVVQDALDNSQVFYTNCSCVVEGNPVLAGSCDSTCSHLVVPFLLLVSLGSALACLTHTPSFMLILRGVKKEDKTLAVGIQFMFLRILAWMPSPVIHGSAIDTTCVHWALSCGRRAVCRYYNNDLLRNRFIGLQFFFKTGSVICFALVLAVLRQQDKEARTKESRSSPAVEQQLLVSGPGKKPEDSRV

[3] = biological target: T1, Solute carrier organic anion transporter family member 1B1; experiment: TP_TRANSPORTER: inhibition of E1S uptake (E1S: 0.04 uM, beta-Estradiol: 100 uM) in OATP-C-expressing HEK293 cells; conditions: hek293, 100 µM
[4] = biological target: T1, Solute carrier organic anion transporter family member 1B1; experiment: TP_TRANSPORTER: inhibition of E1S uptake (E1S: 0.04 uM, #Estrone: 100 uM) in OATP-C-expressing HEK293 cells; conditions: hek293, 100 µM
[5] = biological target: T2, Solute carrier organic anion transporter family member 2B1; experiment: TP_TRANSPORTER: inhibition of E1S uptake (E1S: 0.04 uM, #Estrone: 100 uM) in OATP-B-expressing HEK293 cells; conditions: hek293, 100 µM
[6] = biological target: T1, Solute carrier organic anion transporter family member 1B1; experiment: TP_TRANSPORTER: inhibition of E1S uptake (E1S: 0.04 uM, E217betaG: 100 uM) in OATP-C-expressing HEK293 cells; conditions: hek293, 100 µM
[7] = biological target: T1, Solute carrier organic anion transporter family member 1B1; experiment: TP_TRANSPORTER: inhibition of E217betaG uptake in OATP-C-expressing HEK293 cells
[8] = biological target: T1, Solute carrier organic anion transporter family member 1B1; experiment: TP_TRANSPORTER: inhibition of E1S uptake (E1S: 0.04 uM, Estradiol-3-sulfate: 100 uM) in OATP-C-expressing HEK293 cells; conditions: hek293, 100 µM
[9] = biological target: T2, Solute carrier organic anion transporter family member 2B1; experiment: TP_TRANSPORTER: inhibition of E1S uptake (E1S: 0.04 uM, Estradiol-3-sulfate: 100 uM) in OATP-B-expressing HEK293 cells; conditions: hek293, 100 µM
[10] = biological target: T1, Solute carrier organic anion transporter family member 1B1; experiment: TP_TRANSPORTER: inhibition of E1S uptake (E1S: 0.04 uM, E2 3SO4 17betaG: 100 uM) in OATP-C-expressing HEK293 cells; conditions: hek293, 100 µM
[11] = substrate: C[C@]12CC[C@@H]3c4ccc(OS(=O)(=O)O)cc4CC[C@H]3[C@@H]1CCC2=O; experiment: TP_TRANSPORTER: uptake in OATP-B-expressing HEK293 cells
[12] = substrate: C[C@]12CC[C@@H]3c4ccc(O)cc4CC[C@H]3[C@@H]1CC[C@@H]2O[C@@H]1O[C@H](C(=O)O)[C@@H](O)[C@H](O)[C@H]1O; experiment: TP_TRANSPORTER: uptake in OATP-C-expressing HEK293 cells

## C[C@]12CC[C@@H]3c4ccc(O[C@@H]5O[C@H](C(=O)O)[C@@H](O)[C@H](O)[C@H]5O)cc4CC[C@H]3[C@@H]1CCC2=O
[1]
  Activity: inhibitor [(at a rough estimate) 40 % of control]

## C[C@]12CC[C@@H]3c4ccc(O)cc4CC[C@H]3[C@@H]1CC[C@@H]2O [ESTRADIOL]
[2]
  Activity: inhibitor [(at a rough estimate) 60 % of control]
[3]
  Activity: inhibitor [(at a rough estimate) 35 % of control]

## C[C@]12CC[C@@H]3c4ccc(O)cc4CC[C@H]3[C@@H]1CCC2=O [ESTRONE]
[4]
  Activity: inhibitor [(at a rough estimate) 40 % of control]
[5]
  Activity: inhibitor [(at a rough estimate) 45 % of control]

## C[C@]12CC[C@@H]3c4ccc(O)cc4CC[C@H]3[C@@H]1CC[C@@H]2O[C@@H]1O[C@H](C(=O)O)[C@@H](O)[C@H](O)[C@H]1O [ESTRADIOL 17B GLUCURONIDE]
[6]
  Activity: inhibitor [(at a rough estimate) <1 % of control]
[7]
  Ki: 4430 nM

## C[C@]12CC[C@@H]3c4ccc(OS(=O)(=O)O)cc4CC[C@H]3[C@@H]1CC[C@@H]2O
[8]
  Activity: inhibitor [(at a rough estimate) 10 % of control]
[9]
  Activity: inhibitor [(at a rough estimate) 30 % of control]

## C[C@]12CC[C@@H]3c4ccc(OS(=O)(=O)O)cc4CC[C@H]3[C@@H]1CCC2=O [ESTRONE SULFURIC ACID]
[7]
  Ki: 45.8 nM

## C[C@]12CC[C@@H]3c4ccc(OS(=O)(=O)O)cc4CC[C@H]3[C@@H]1CC[C@@H]2O[C@@H]1O[C@H](C(=O)O)[C@@H](O)[C@H](O)[C@H]1O [ESTRADIOL GLUCURONIDE SULFATE]
[10]
  Activity: inhibitor [(at a rough estimate) 40 % of control]

B1: Solute carrier organic anion transporter family member 2B1 (Homo sapiens) (protein)
chain: MGPRIGPAGEVPQVPDKETKATMGTENTPGGKASPDPQDVRPSVFHNIKLFVLCHSLLQLAQLMISGYLKSSISTVEKRFGLSSQTSGLLASFNEVGNTALIVFVSYFGSRVHRPRMIGYGAILVALAGLLMTLPHFISEPYRYDNTSPEDMPQDFKASLCLPTTSAPASAPSNGNCSSYTETQHLSVVGIMFVAQTLLGVGGVPIQPFGISYIDDFAHNSNSPLYLGILFAVTMMGPGLAFGLGSLMLRLYVDINQMPEGGISLTIKDPRWVGAWWLGFLIAAGAVALAAIPYFFFPKEMPKEKRELQFRRKVLAVTDSPARKGKDSPSKQSPGESTKKQDGLVQIAPNLTVIQFIKVFPRVLLQTLRHPIFLLVVLSQVCLSSMAAGMATFLPKFLERQFSITASYANLLIGCLSFPSVIVGIVVGGVLVKRLHLGPVGCGALCLLGMLLCLFFSLPLFFIGCSSHQIAGITHQTSAHPGLELSPSCMEACSCPLDGFNPVCDPSTRVEYITPCHAGCSSWVVQDALDNSQVFYTNCSCVVEGNPVLAGSCDSTCSHLVVPFLLLVSLGSALACLTHTPSFMLILRGVKKEDKTLAVGIQFMFLRILAWMPSPVIHGSAIDTTCVHWALSCGRRAVCRYYNNDLLRNRFIGLQFFFKTGSVICFALVLAVLRQQDKEARTKESRSSPAVEQQLLVSGPGKKPEDSRV
[11]
  Km: 12.5 µM

B2: Solute carrier organic anion transporter family member 1B1 (Homo sapiens) (protein)
chain: MDQNQHLNKTAEAQPSENKKTRYCNGLKMFLAALSLSFIAKTLGAIIMKSSIIHIERRFEISSSLVGFIDGSFEIGNLLVIVFVSYFGSKLHRPKLIGIGCFIMGIGGVLTALPHFFMGYYRYSKETNINSSENSTSTLSTCLINQILSLNRASPEIVGKGCLKESGSYMWIYVFMGNMLRGIGETPIVPLGLSYIDDFAKEGHSSLYLGILNAIAMIGPIIGFTLGSLFSKMYVDIGYVDLSTIRITPTDSRWVGAWWLNFLVSGLFSIISSIPFFFLPQTPNKPQKERKASLSLHVLETNDEKDQTANLTNQGKNITKNVTGFFQSFKSILTNPLYVMFVLLTLLQVSSYIGAFTYVFKYVEQQYGQPSSKANILLGVITIPIFASGMFLGGYIIKKFKLNTVGIAKFSCFTAVMSLSFYLLYFFILCENKSVAGLTMTYDGNNPVTSHRDVPLSYCNSDCNCDESQWEPVCGNNGITYISPCLAGCKSSSGNKKPIVFYNCSCLEVTGLQNRNYSAHLGECPRDDACTRKFYFFVAIQVLNLFFSALGGTSHVMLIVKIVQPELKSLALGFHSMVIRALGGILAPIYFGALIDTTCIKWSTNNCGTRGSCRTYNSTSFSRVYLGLSSMLRVSSLVLYIILIYAMKKKYQEKDINASENGSVMDEANLESLNKNKHFVPSAGADSETHC
[12]
  Km: 3.71 µM
